According to article PMC6274259, “New 3-Cyano-2-Substituted Pyridines Induce Apoptosis in MCF 7 Breast Cancer Cells” (Molecules, 2016):

Columns and labels:
[1] = test system: SK-OV-3 human ovarian carcinoma cell line; test: WST-1 cell viability assay, SK-OV-3; type: cell-based; settings: WST-1, 24 h treatment, mean ± S.D of three independent experiments
Description: (§1) The synthesized compounds were screened for their cytotoxicity on five cancer cell lines, namely SK-OV-3, MCF-7, MDA-MB-231, HCT-116 and RKO, using a WST colorimetric assay. The assay principle is based upon the reduction of the tetrazolium salt WST-1 to formazan by cellular mitochondrial dehydrogenases present in viable cells. […] Among the latter compounds the benzohydrazide derivative 9a emerged with the lowest IC50 in this study against MCF-7 cells compared to 5-FU. […] Based on the fact that 9a had less cytotoxic effects on normal breast epithelial cells it was subjected to further studies.
(§2) The following cell lines were used for the screening stage, obtained from the American Type Culture Collection (ATCC, Manassas, VA, USA); SK-OV-3 (HTB-77), MCF-12A (ATCC CRL-10782), MDA-MB-231 (ATCC HTB-26), HCT-116 (CCL-247), RKO (CRL-2577) and sub-culturing of the above cell lines was conducted in 75 cm^2 flasks. The old culture media was removed and discarded after assessing the confluency of the cells and the cells were rinsed with 2–3 mL diluted trypsin (1×) (trypsin/EDTA solution consists of 0.025% trypsin and 0.01% EDTA in PBS), for about 5 minutes for complete detachment. The cells were observed under the inverted microscope until the cell layer is completely dispersed. 75 cm^2 flasks were prepared and 16 mL of DMEM media for SK-OV-3, MCF-7, MDA-MB-231, (DMEM 4500 mg glucose) and RPMI media for HCT-116 were added to each flask. The cells were aspirated gently and added to the flasks. DMEM 4500 mg/L high glucose with 10% FBS, 5% streptomycin and penicillin, RPMI 1640 (prepared by adding 5% heat-inactivated FCS and 2 mm glutamine) were used. DMEM was also used for MCF-12A cells with the addition of human epidermal growth factor 20 ng/mL, insulin 0.01 mg/mL and hydrocortisone 500 ng/mL.
(§3) The synthesized compounds were screened for their anti-proliferative activity using 5-FU (F6627-1G, Sigma-Aldrich, St. Louis, MO, USA) as reference compound. A concentration of 0.4% DMSO was used in all experiment after ensuring 100% viability of the cell lines with this concentration. A 25 mM stock concentration of all compounds was prepared for further studies and analysis.
(§4) Cells were trypsinized and placed in a 15 mL Falcon tube, the cells were centrifuged for 3 min at 1000 rpm. Trypsin is decanted using a sterile pipette and then the pellet is loosened by flicking the tube few times then 5–10 mL warm DMEM or RPMI were added to the Falcon tube and the pellet is resuspended. Cell count was done next by taking 10 μL of the suspension into the cell counting slide and read under 10× cells/mL. A cell stock of 50,000 cells/mL was prepared for the 96 wells. Cells (100 μL) were added to each well using a sterile pipette each time to ensure consistency. The experiment was planned ahead of time using excel sheet, 3–6 wells were reserved as blank media while 3–6 wells for vehicle (DMSO). The plate was incubated for 24 h for compound treatment step. DMEM media was used to prepare different dilutions of the compounds. The old DMEM media was removed from the wells using sterile pipette in the hood and the media was replaced with 100 μL media with each compound. The plate was incubated for 24 h. After 24 h incubation, WST-1 reagent (Sigma) was added to each well and then the plate was incubated for 1 h before measuring the absorbance using VICTOR™ Multilabel Plate Reader (Perkin Elmer, Beaconsfield, UK). The absorbance of the colored solution can be quantified by measuring at a certain wavelength (usually between 500–600 nm), in this experiment the first reading was conducted at 540 nm and the second reading at 690 nm for the reference wavelength. The percentage of cell viability was determined as the ratio of the absorbance of the sample vs the control. Three independent experiments were performed. […] 5-Florouracil (Sigma-Aldrich, F6627-1G) was used as reference standard.

[2] = test system: RKO human colon carcinoma cell line; test: WST-1 cell viability assay, RKO; type: cell-based; settings: WST-1, 24 h treatment, mean ± S.D of three independent experiments
Description: as §1, §2, §3, §4

[3] = test system: MDA-MB-231 human breast adenocarcinoma cell line; test: WST-1 cell viability assay, MDA-MB-231; type: cell-based; settings: WST-1, 24 h treatment, mean ± S.D of three independent experiments
Description: as §1, §2, §3, §4

[4] = test system: HCT-116 human colon carcinoma cell line; test: WST-1 cell viability assay, HCT-116; type: cell-based; settings: WST-1, 24 h treatment, mean ± S.D of three independent experiments
Description: as §1, §2, §3, §4

[5] = test system: MCF-7 human breast adenocarcinoma cell line; test: WST-1 cell viability assay, MCF-7; type: cell-based; settings: WST-1, 24 h treatment, mean ± S.D of three independent experiments
Description: as §1, §2, §3, §4

[6] = Homo sapiens, Colon carcinoma cell

SMILES | IC50 ([1]; Homo sapiens, SK-OV-3) [µM] | IC50 [2, 6] [µM] | IC50 ([3]; Homo sapiens, MDA-MB-231) [µM] | IC50 ([4]; Homo sapiens, HCT-116) [µM] | IC50 ([5]; Homo sapiens, MCF7, 24 h) [µM] | melting point [°C] | IC50 [1] [µM] | IC50 [2] [µM] | IC50 [3] [µM] | IC50 [4] [µM] | IC50 [5] [µM]
COc1ccc(-c2cc(-c3ccc(OC)c(OC)c3)c(C#N)c(OC)n2)cc1OC [Compound 4a, 2-Methoxy-4,6-bis(3,4-dimethoxyphenyl)pyridine-3-carbonitrile] | 11.4 ± 0.72 | 13.2 ± 0.77 | 32.1 ± 0.84 | 20.3 ± 0.85 | 9.08 ± 0.37 | – | – | – | – | – | –
CCOc1nc(-c2ccc(OC)c(OC)c2)cc(-c2ccc(OC)c(OC)c2)c1C#N [Compound 4b, 2-Ethoxy-4,6-bis(3,4-dimethoxyphenyl)pyridine-3-carbonitrile] | 18.2 ± 0.98 | 19.8 ± 0.37 | 40 ± 1.36 | 26.2 ± 1.22 | 15.5 ± 0.46 | – | – | – | – | – | –
CCCOc1nc(-c2ccc(OC)c(OC)c2)cc(-c2ccc(OC)c(OC)c2)c1C#N [Compound 4c, 4,6-bis(3,4-Dimethoxyphenyl)-2-propoxypyridine-3-carbonitrile] | 22.1 ± 1.32 | 18.1 ± 1.03 | 44.9 ± 1.74 | 10.1 ± 0.76 | 12.3 ± 0.77 | – | – | – | – | – | –
COc1ccc(-c2cc(-c3ccc(OC)c(OC)c3)c(C#N)c(OCC(C)=O)n2)cc1OC [Compound 4d, 4,6-bis(3,4-Dimethoxyphenyl)-2-(2-oxopropoxy)pyridine-3-carbonitrile] | 25.2 ± 0.76 | 17.4 ± 0.44 | 35.8 ± 0.96 | 13.1 ± 0.84 | 20.3 ± 0.98 | 110 to 112 | – | – | – | – | –
CCOC(=O)COc1nc(-c2ccc(OC)c(OC)c2)cc(-c2ccc(OC)c(OC)c2)c1C#N [Compound 5, Ethyl 2-(3-Cyano-4,6-bis(3,4-dimethoxyphenyl)pyridin-2-yloxy)acetate] | 10.2 ± 0.44 | 22.1 ± 0.97 | 25.1 ± 0.87 | 14.9 ± 0.98 | 15.4 ± 0.94 | – | – | – | – | – | –
O=c1[nH]cc(F)c(=O)[nH]1 [Compound 5-FU, 5-Florouracil, reference compound] | – | – | – | – | – | – | 32.2 ± 1.03 | 20.2 ± 1.16 | 15.1 ± 0.94 | 12.2 ± 1.1 | 7.06 ± 0.91
COc1ccc(-c2cc(-c3ccc(OC)c(OC)c3)c(C#N)c(OCC(=O)NNC(=S)SC)n2)cc1OC [Compound 7a, Methyl 2-[2-(3-cyano-4,6-bis(3,4-dimethoxyphenyl)pyridin-2-yloxy)acetyl]hydrazinecarbodithioate] | 9.01 ± 0.42 | 11.2 ± 0.91 | 30.1 ± 0.88 | 23.2 ± 0.95 | 11.2 ± 0.22 | 151 to 153 | – | – | – | – | –
CCSC(=S)NNC(=O)COc1nc(-c2ccc(OC)c(OC)c2)cc(-c2ccc(OC)c(OC)c2)c1C#N [Compound 7b, Ethyl 2-[2-(3-cyano-4,6-bis(3,4-dimethoxyphenyl)pyridin-2-yloxy)acetyl]hydrazinecarbodithioate] | 12.3 ± 0.88 | 15.2 ± 1.13 | 37.9 ± 1.25 | 9.1 ± 0.97 | 18.1 ± 1.76 | 144 to 146 | – | – | – | – | –
COc1ccc(-c2cc(-c3ccc(OC)c(OC)c3)c(C#N)c(OCC(=O)NNC(=S)SCCN3CCOCC3)n2)cc1OC [Compound 7c, 2-Morpholinoethyl-2-[2-(3-cyano-4,6-bis(3,4-dimethoxyphenyl)pyridin-2-yloxy)acetyl]hydrazinecarbo-dithioate] | 5.12 ± 0.11 | 20.3 ± 0.76 | 31.7 ± 0.89 | 26.9 ± 0.97 | 7.1 ± 0.44 | 158 to 160 | – | – | – | – | –
COc1ccc(-c2cc(-c3ccc(OC)c(OC)c3)c(C#N)c(OCC(=O)NNC(=S)SCCN3CCCCC3)n2)cc1OC [Compound 7d, 2-(Piperidin-1-yl)-ethyl-2-[2-(3-cyano-4,6-bis(3,4-dimethoxyphenyl)pyridin-2-yloxy)acetyl]hydrazinecarbo-dithioate] | 10.1 ± 0.98 | 25 ± 1.33 | 35.5 ± 1.03 | 11.2 ± 1.26 | 14.3 ± 0.95 | 160 to 162 | – | – | – | – | –
COc1ccc(C=NNC(=O)COc2nc(-c3ccc(OC)c(OC)c3)cc(-c3ccc(OC)c(OC)c3)c2C#N)cc1 [Compound 8a, 2-[3-Cyano-4,6-bis(3,4-dimethoxyphenyl)pyridin-2-yl]oxy-N'-(4-methoxybenzylidene)acetohydrazide] | 14.1 ± 0.95 | 12.32 ± 0.02 | 25.3 ± 1.24 | 28.8 ± 0.31 | 12 ± 0.96 | 163 to 164 | – | – | – | – | –
COc1ccc(C=NNC(=O)COc2nc(-c3ccc(OC)c(OC)c3)cc(-c3ccc(OC)c(OC)c3)c2C#N)cc1OC [Compound 8b, 2-[3-Cyano-4,6-bis(3,4-dimethoxyphenyl)pyridin-2-yl]oxy-N'-(3,4-dimethoxybenzylidene)acetohydrazide] | 10.2 ± 0.92 | 14.2 ± 0.91 | 32.3 ± 0.87 | 25.2 ± 0.89 | 9.31 ± 0.98 | 190 to 192 | – | – | – | – | –
COc1ccc(-c2cc(-c3ccc(OC)c(OC)c3)c(C#N)c(OCC(=O)NN=Cc3cc(OC)c(OC)c(OC)c3)n2)cc1OC [Compound 8c, 2-[3-Cyano-4,6-bis(3,4-dimethoxyphenyl)pyridin-2-yl]oxy-N'-(3,4,5-trimethoxybenzylidene)acetohydrazide] | 12.1 ± 0.98 | 16.3 ± 0.37 | 20.3 ± 1.06 | 25.9 ± 0.83 | 15.3 ± 0.74 | 232 to 234 | – | – | – | – | –
COc1ccc(C(=O)NNC(=O)COc2nc(-c3ccc(OC)c(OC)c3)cc(-c3ccc(OC)c(OC)c3)c2C#N)cc1 [Compound 9b, N'-[2-(3-cyano-4,6-bis(3,4-dimethoxyphenyl)pyridin-2-yloxy)acetyl]-4-methoxybenzo hydrazide] | 7.08 ± 0.16 | 9.95 ± 1.06 | 19.3 ± 0.86 | 17.9 ± 0.74 | 10.2 ± 0.92 | 170 to 172 | – | – | – | – | –
COc1ccc(-c2cc(-c3ccc(OC)c(OC)c3)c(C#N)c(OCC(=O)NNS(=O)(=O)c3ccccc3)n2)cc1OC [Compound 10a, N'-[2-(3-cyano-4,6-bis(3,4-dimethoxyphenyl)pyridin-2-yloxy)acety]benzenesulfohydrazide] | 11.34 ± 0.02 | 12.1 ± 1.26 | 26.8 ± 0.33 | 21.8 ± 0.85 | 13.4 ± 0.98 | 120 to 122 | – | – | – | – | –
COc1ccc(S(=O)(=O)NNC(=O)COc2nc(-c3ccc(OC)c(OC)c3)cc(-c3ccc(OC)c(OC)c3)c2C#N)cc1 [Compound 10b, N'-[2-(3-cyano-4,6-bis(3,4-dimethoxyphenyl)pyridin-2-yloxy)acetyl]-4-methoxybenzenesulfohydrazide] | 9.17 ± 0.38 | 15.7 ± 0.86 | 22.4 ± 1.71 | 16.1 ± 1.07 | 8.12 ± 0.47 | 190 to 192 | – | – | – | – | –
COc1ccc(-c2cc(-c3ccc(OC)c(OC)c3)c(C#N)c(OCc3nnc(S)o3)n2)cc1OC [Compound 14, 2-((5-Mercapto-1,3,4-oxadiazol-2-yl)methoxy)-4,6-bis(3,4-dimethoxyphenyl)pyridine-3-carbonitrile] | 30.3 ± 1.12 | > 50 | > 50 | > 50 | > 50 | – | – | – | – | – | –
